Results: patent US20040033517A1, “Compositions and methods relating to endothelial cell signaling using the protease activated receptor (PAR1)” (priority 2002, published 2004)
Where two headings read alike, the source gives them in different places.

Columns and labels:
[1] = test system: human umbilical vein endothelial cells HUVEC-C; assay type: cell-based; settings: endothelial cells
Description: Microarray Analysis. […] Total RNA was isolated followed by reverse transcription. Purified double stranded cDNA was in vitro transcribed in the presence of biotinylated dUTP and dCTP, fragmented cRNA was hybridized to the HG-U95Av2 array (Affymetrix, Santa Clara, Calif.), followed by staining with streptavidin-phycoerythrin. Arrays were scanned and analyzed using GeneChip3.1 software. […] An average fold-induction for the three independent experiments was obtained by calculating the means of the logarithm of the individual fold-increases for each agonist.

[2] = test system: thrombin-mediated PAR1 signaling; settings: 100 nM hirudin; M. Riewald et al., Blood 97: 3109, 2001; cited from earlier work

## Thrombin
[1]
  Induction (log 2), A1743606 wg51108.x1 Homo sapiens cDNA: −0.05 log 2
  Induction (log 2), AB002450 Homo sapiens mRNA from chromosome 5q21-22, clone-A3-A: 0.45 log 2
  Induction (log 2), AB003184 Homo sapiens mRNA for ISLR: 0.05 log 2
  Induction (log 2), AB012229 fructose-6-phosphate,2-kinase/fructose-2,6-bisphosphatase: 0.25 log 2
  Induction (log 2), AF000421 TTF-1 interacting peptide 12 mRNA: 0.20 log 2
  Induction (log 2), AF015451 Homo sapiens Usurpin-beta mRNA: 0.45 log 2
  Induction (log 2), AF022375 Homo sapiens vascular endothelial growth factor mRNA: 0.75 log 2
  Induction (log 2), AF024710 Homo sapiens vascular endothelial growth factor (VEGF) mRNA: 0.90 log 2
  Induction (log 2), AF042083 BH3 interacting domain death agonist (BID) mRNA: 0.20 log 2
  Induction (log 2), AF094481 trinucleotide repeat DNA binding protein p20-CGGBP (CGGBP) gene: 0.50 log 2
  Induction (log 2), AF095154 Homo sapiens C1q-related factor mRNA: 0.10 log 2
  Induction (log 2), AF098462 Homo sapiens stanniocalcin-related protein mRNA: 1.00 log 2
  Induction (log 2), AJ000480 Homo sapiens mRNA for C8FW phosphoprotein: 1.15 log 2
  Induction (log 2), Cluster Incl U88629 Human RNA polymerase II elongation factor ELL2: 0.70 log 2
  Induction (log 2), Cluster Incl X66360 H.sapiens mRNA PCTAIRE-2 for serine/threonine protein kinase: 0.35 log 2
  Induction (log 2), D29990 Human mRNA for cationic amino acid transporter 2: 0.75 log 2
  Induction (log 2), D38449 Human mRNA for G protein-coupled receptor: 0.10 log 2
  Induction (log 2), D49817 6-phosphofructo-2-kinase/fructose-2, 6-bisphosphatase mRNA: 0.20 log 2
  Induction (log 2), D78579 Homo sapiens mRNA for neuron derived orphan receptor: 1.55 log 2
  Induction (log 2), J04102 Human erythroblastosis virus oncogene homolog 2 (ets-2) mRNA: 0.50 log 2
  Induction (log 2), L07261 Human alpha adducin mRNA: 0.10 log 2
  Induction (log 2), L19871 Human activating transcription factor 3 (ATF3) mRNA: 1.10 log 2
  Induction (log 2), L38487 Human estrogen receptor-related protein (hERRa1) mRNA: 0.10 log 2
  Induction (log 2), M14648 Human cell adhesion protein (vitronectin) receptor alpha subunit mRNA: 0.60 log 2
  Induction (log 2), M19481 Human follistatin gene: 1.30 log 2
  Induction (log 2), M22489 Human bone morphogenetic protein 2A (BMP-2A) mRNA: 0.90 log 2
  Induction (log 2), M28130 Human interleukin 8 (IL8) gene: 0.40 log 2
  Induction (log 2), M29039 Human transactivator (jun-B) gene: 0.60 log 2
  Induction (log 2), M36820 Human cytokine (GRO-beta) mRNA: 0.35 log 2
  Induction (log 2), M59964 Human stem cell factor mRNA: 0.75 log 2
  Induction (log 2), M64349 Human cyclin D (cyclin D1) mRNA: 0.00 log 2
  Induction (log 2), M96995 epidermal growth factor receptor-binding protein GRB2 (EGFRBP-GRB2) mRNA: 0.05 log 2
  Induction (log 2), Neurofibromatosis 2 Tumor Suppressor: 0.55 log 2
  Induction (log 2), Tyrosine Phosphatase, Epsilon: 1.40 log 2
  Induction (log 2), U08015 HumanNF-ATc mRNA: 0.55 log 2
  Induction (log 2), U12471 Human thrombospondin-1 gene: 0.70 log 2
  Induction (log 2), U12767 Human mitogen induced nuclear orphan receptor (MINOR) mRNA: 1.15 log 2
  Induction (log 2), U15932 Human dual-specificity protein phosphatase mRNA: 0.60 log 2
  Induction (log 2), U18671 Human Stat2 gene: 0.05 log 2
  Induction (log 2), U20816 Human nuclear factor kappa-B2 (NF-KB2) gene: 0.70 log 2
  Induction (log 2), U23070 Human putative transmembrane protein (nma) mRNA: 1.10 log 2
  Induction (log 2), U25997 Homo sapiens stanniocalcin precursor (STC) mRNA: 1.10 log 2
  Induction (log 2), U33838 Human NF-kappa-B p65delta3 mRNA: 0.10 log 2
  Induction (log 2), U42391 Human myosin-IXb mRNA: −0.15 log 2
  Induction (log 2), U65093 Human msg1-related gene 1 (mrg1) mRNA: 0.95 log 2
  Induction (log 2), U72066 Homo sapiens CtBP interacting protein CtIP (CtIP) mRNA: 0.70 log 2
  Induction (log 2), U76368 Human cationic amino acid transporter-2A (ATRC2) mRNA: 0.75 log 2
  Induction (log 2), U83981 Homo sapiens apoptosis associated protein (GADD34) mRNA: 0.50 log 2
  Induction (log 2), U88629/FEATURE Human RNA polymerase II elongation factor ELL2: 0.75 log 2
  Induction (log 2), W28170 43a12 Homo sapiens cDNA: 0.15 log 2
  Induction (log 2), W28257 44c1 Homo sapiens cDNA: 0.20 log 2
  Induction (log 2), X02469 Human mRNA for p53 cellular tumor antigen: −0.10 log 2
  Induction (log 2), X14787 Human mRNA for thrombospondin: 0.40 log 2
  Induction (log 2), X14798 Human DNA for c-ets-1 proto-oncogene: 0.75 log 2
  Induction (log 2), X16706 Human fra-2 mRNA: 0.50 log 2
  Induction (log 2), X51345 Human jun-B mRNA for JUN-B protein: 0.75 log 2
  Induction (log 2), X51435 Human PRDII-BF1 gene for a DNA-binding protein: 0.85 log 2
  Induction (log 2), X66360/FEATURE H.sapiens mRNA PCTAIRE-2 for serine/threonine protein kinase: 0.65 log 2
  Induction (log 2), X68277 H.sapiens CL 100 mRNA for protein tyrosine phosphatase: 1.75 log 2
  Induction (log 2), X69086 H.sapiens mRNA for utrophin: 0.60 log 2
  Induction (log 2), X69699 H.sapiens Pax8 mRNA: 0.10 log 2
  Induction (log 2), X98248 H.sapiens mRNA for sortilin: −0.15 log 2
  Induction (log 2), Z12173 H.sapiens GNS mRNA encoding glucosamine-6-sulphatase: 0.60 log 2
  Induction (log 2), Z12830 H.sapiens mRNA for SSR alpha subunit: 0.40 log 2
  Induction (log 2), Z23115 H.sapiens bc1-xL mRNA: 0.10 log 2
  Induction (log 2), Z29083 H.sapiens 5T4 gene for 5T4 Oncofetal antigen: 0.10 log 2
  Induction (log 2), Z48579 H.sapiens mRNA for disintegrin-metalloprotease (partial): 0.20 log 2
[1]; first entry (r8)
  Induction (log 2), D13540 Homo sapiens SH-PTP3 mRNA for protein-tyrosine phosphatase: 0.65 log 2
[1]; first entry (r15)
  Induction (log 2), W28616 49b9 Homo sapiens cDNA: 0.30 log 2
[1]; second entry (r30)
  Induction (log 2), W28616 49b9 Homo sapiens cDNA: −0.05 log 2
[1]; second entry (r54)
  Induction (log 2), D13540 Homo sapiens SH-PTP3 mRNA for protein-tyrosine phosphatase: 0.40 log 2

## hirudin
[2]
  Block of cell surface thrombin-mediated PAR1 signaling: block all cell surface thrombin-mediated PAR1 signaling
